# Molecular target: Serotonin 3 (5-HT3) receptor (Rattus norvegicus) (UniProt P35563+Q9JJ16)
# Assay: Compound was tested as a 5-hydroxytryptamine 3 receptor antagonist in the rat by assessment of the inhibition of the Bezold-Jarisch effect, when administered intravenously
# Type: functional
row,Compound,ID50
1,O=C1c2ccc3ccccc3c2C(=O)N1[C@H]1CN2CCC1CC2,18.6 mg/kg

# Molecular target: T1, Serotonin 3 (5-HT3) receptor (Rattus norvegicus, UniProt P35563+Q9JJ16)
# T1 sequence (P35563 whole entry): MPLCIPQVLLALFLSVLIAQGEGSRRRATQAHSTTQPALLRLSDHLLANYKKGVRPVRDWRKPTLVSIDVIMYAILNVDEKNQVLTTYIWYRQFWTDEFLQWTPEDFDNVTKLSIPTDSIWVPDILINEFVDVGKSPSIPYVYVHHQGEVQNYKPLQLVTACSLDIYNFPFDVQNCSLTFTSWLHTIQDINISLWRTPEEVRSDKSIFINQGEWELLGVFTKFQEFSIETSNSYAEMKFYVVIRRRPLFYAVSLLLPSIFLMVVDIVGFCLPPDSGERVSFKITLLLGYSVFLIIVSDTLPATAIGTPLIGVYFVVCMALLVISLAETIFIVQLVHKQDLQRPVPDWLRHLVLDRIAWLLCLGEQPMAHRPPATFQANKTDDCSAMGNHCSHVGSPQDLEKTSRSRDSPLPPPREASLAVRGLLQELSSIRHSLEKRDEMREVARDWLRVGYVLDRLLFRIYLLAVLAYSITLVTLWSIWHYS
# T1 sequence (Q9JJ16 whole entry): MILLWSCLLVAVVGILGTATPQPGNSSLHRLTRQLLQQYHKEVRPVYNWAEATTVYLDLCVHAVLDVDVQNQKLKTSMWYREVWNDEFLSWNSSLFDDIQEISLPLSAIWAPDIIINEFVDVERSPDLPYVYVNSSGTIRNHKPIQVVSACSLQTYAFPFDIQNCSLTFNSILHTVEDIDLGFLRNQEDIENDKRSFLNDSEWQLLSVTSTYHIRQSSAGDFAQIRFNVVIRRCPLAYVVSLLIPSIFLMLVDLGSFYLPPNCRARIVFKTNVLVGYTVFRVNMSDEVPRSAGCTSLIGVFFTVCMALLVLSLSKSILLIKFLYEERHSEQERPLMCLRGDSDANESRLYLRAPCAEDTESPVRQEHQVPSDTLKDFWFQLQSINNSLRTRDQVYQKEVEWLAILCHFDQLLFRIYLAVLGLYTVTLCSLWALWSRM
# Assay: Binding affinity at 5-hydroxytryptamine 3 receptor in rat entorhinal cortex by [3H]BRL-43694 displacement.
# Type: tissue-based
row,Compound,Ki
1,CCCOc1ccccc1C(=O)N[C@@H]1CN2CCC1CC2,11.2 nM
2,O=C1c2ccc3ccccc3c2C(=O)N1[C@@H]1CN2CCC1CC2,119 nM
3,COc1ccc2ccccc2c1C(=O)NC1CN2CCC1CC2 (centres undefined),342 nM
4,CCOc1ccccc1C(=O)N[C@@H]1CN2CCC1CC2,18.9 nM
5,O=C(N[C@@H]1CN2CCC1CC2)c1ccccc1,147 nM
6,CCOc1ccccc1C(=O)N[C@H]1CN2CCC1CC2,100 nM
7,O=C1c2ccc3ccccc3c2C(=O)N1[C@H]1CN2CCC1CC2,6 nM
8,COc1ccccc1C(=O)N[C@@H]1CN2CCC1CC2,23.4 nM
9,COc1ccccc1C(=O)N[C@H]1CN2CCC1CC2,409 nM
10,Nc1ccc2cccc3c2c1C(=O)N(C1CN2CCC1CC2)C3=O (centres undefined),0.15 nM
11,O=C(N[C@H]1CN2CCC1CC2)c1ccccc1,1890 nM
12,O=C(N[C@@H]1CN2CCC1CC2)c1cccc2ccccc12,32 nM
13,CCCOc1ccccc1C(=O)N[C@H]1CN2CCC1CC2,71.6 nM
